Measurements published in patent publication US20040002545A1, “Thiazole derivatives of 2-methoxyimino-2-(pyridinyloxymethyl)-phenyl-acetamides useful as fungicides” (priority 2003, published 2004).

Columns and labels:
Type in all cases: in vivo
[1] = system: Puccinia recondita—PUCCRT; assay: Wheat brown rust greenhouse test, curative and protectant; details: for PUCCRT 3DC: 3DC (curative); for PUCCRT 7DP: 7DP (protectant)
Source text: (§1) Pathogen propagation and host inoculation. Plants were inoculated with various pathogens 1-4 days before compound application (curative tests) and 1-7 days after compound application (protectant tests). For all wheat trials, compounds were applied at growth stage 1.2, when the second leaf was expanded to about ½ of its final size (12 days after seeds were first watered). Information on the growth stages of other plant species at the time compound application and on the propagation and inoculation procedures associated with each pathogen is given below.
PUCCRT: Spores of the obligate pathogen PUCCRT were collected from infected plants with a vacuum apparatus and stored at 4° C. Approximately 0.1 g of fresh spores (stored at 4° C. for less than 30 days) was mixed with several drops of Tween 20. The thick spore paste was diluted to 100 ml with water and sprayed to run-off on wheat seed seedlings. Plants inoculated with PUCCRT were kept in a 20° C. dew chamber overnight and then transferred to a 20° C. growth chamber where symptoms developed in 8-9 days.

Septoria tritici—SEPTTR = assay: Wheat leaf blotch greenhouse test, curative and protectant; parameters: scale not given here; details: for SEPTTR 3DC: 3DC (curative); for SEPTTR 7DP: 7DP (protectant)
Source text: as §1
SEPTTR: Fresh inoculum is prepared in a manner similar to that described for LEPTNO. In this case, a brownish layer of spores covers the entire surface of the PDA plate and only a few plates are needed to obtain a large number of spores. After incubation overnight in the 20° C. dew chamber, inoculated plants were continually misted for 3 days in a 20° C. greenhouse, then grown at 20° C. without mist until disease symptoms had fully developed (usually about 10 days).
(§2) LEPTNO: Fresh inoculum was prepared by streaking PDA plates with spore exudates from an older plate using a sterile spatula. The plates were incubated at 18° C. under black lights and typically produced large quantities of spores in pink exudate in 6-7 days. A small amount of tap water was poured onto several plates and spores were collected by scraping the exudates off the PDA surface into the water. The spore solutions were combined in a large beaker, diluted with 200-300 ml of water and filtered through a 180 u mesh screen. The spore concentration was determined using a hemacytometer and water was added to obtain a final concentration of 10^7 spores/ml. Approximately 3 large drops of Tween 20 were added for each 100 ml of volume and the spore solution was sprayed to run-off on wheat seedlings. Inoculated plants were placed in a 20° C. dew chamber overnight, then moved to a 20° C. greenhouse where they were continually misted (12 seconds of mist every minute) until disease symptoms were fully developed (8-10 days).

Septoria nodorum—LEPTNO = assay: Wheat glume blotch greenhouse test, curative and protectant; parameters: scale not given here; details: for LEPTNO 3DC: 3DC (curative); for LEPTNO 7DP: 7DP (protectant)
Source text: as §1, §2

Erysiphe graminis—ERYSGT = assay: Wheat powdery mildew greenhouse test, curative and protectant; parameters: scale not given here; details: for ERYSGT 3DC: 3DC (curative); for ERYSGT 7DP: 7DP (protectant)
Source text: as §1
ERYSGT: Wheat seedlings were infected with fresh spores from the obligate pathogen ERYSGT by shaking heavily infected wheat plants over them. Plants that had been dusted with ERYSGT spores were incubated in the greenhouse at 22° C. until disease symptoms had fully developed (usually 7 days).

Molecule	PUCCRT 3DC ([1]; rate 15.5 g ai/ha)	PUCCRT 7DP ([1]; rate 15.5 g ai/ha)	PUCCRT 3DC ([1]; rate 31.3 g ai/ha)	PUCCRT 7DP ([1]; rate 31.3 g ai/ha)	PUCCRT 3DC ([1]; rate 62.5 g ai/ha)	PUCCRT 7DP ([1]; rate 62.5 g ai/ha)	PUCCRT 3DC ([1]; rate 125 g ai/ha)	PUCCRT 7DP ([1]; rate 125 g ai/ha)	SEPTTR 3DC (Septoria tritici—SEPTTR; rate 15.5 g ai/ha)	SEPTTR 7DP (Septoria tritici—SEPTTR; rate 15.5 g ai/ha)	SEPTTR 3DC (Septoria tritici—SEPTTR; rate 31.3 g ai/ha)	SEPTTR 7DP (Septoria tritici—SEPTTR; rate 31.3 g ai/ha)	SEPTTR 3DC (Septoria tritici—SEPTTR; rate 62.5 g ai/ha)	SEPTTR 7DP (Septoria tritici—SEPTTR; rate 62.5 g ai/ha)	SEPTTR 3DC (Septoria tritici—SEPTTR; rate 125 g ai/ha)	SEPTTR 7DP (Septoria tritici—SEPTTR; rate 125 g ai/ha)	LEPTNO 3DC (Septoria nodorum—LEPTNO; rate 15.5 g ai/ha)	LEPTNO 7DP (Septoria nodorum—LEPTNO; rate 15.5 g ai/ha)	LEPTNO 3DC (Septoria nodorum—LEPTNO; rate 31.3 g ai/ha)	LEPTNO 7DP (Septoria nodorum—LEPTNO; rate 31.3 g ai/ha)	also measured
2-[[[3-chloro-5-[5-[3-methylisothiazoly]]-2-pyridinyl]-oxy]methyl]-alpha-(methoxyimino)-N-methylbenzeneacetamide [Compound 1]	93	80	99	94	100	100	100	100	22	53	59	88	85	76	99	91	58	46	60	50	LEPTNO 3DC (Septoria nodorum—LEPTNO; rate 62.5 g ai/ha): 53; LEPTNO 7DP (Septoria nodorum—LEPTNO; rate 62.5 g ai/ha): 95; LEPTNO 3DC (Septoria nodorum—LEPTNO; rate 125 g ai/ha): 71; LEPTNO 7DP (Septoria nodorum—LEPTNO; rate 125 g ai/ha): 98; ERYSGT 3DC (Erysiphe graminis—ERYSGT; rate 15.5 g ai/ha): 88; ERYSGT 7DP (Erysiphe graminis—ERYSGT; rate 15.5 g ai/ha): 51; ERYSGT 3DC (Erysiphe graminis—ERYSGT; rate 31.3 g ai/ha): 92; ERYSGT 7DP (Erysiphe graminis—ERYSGT; rate 31.3 g ai/ha): 45; ERYSGT 3DC (Erysiphe graminis—ERYSGT; rate 62.5 g ai/ha): 94; ERYSGT 7DP (Erysiphe graminis—ERYSGT; rate 62.5 g ai/ha): 88; ERYSGT 3DC (Erysiphe graminis—ERYSGT; rate 125 g ai/ha): 97; ERYSGT 7DP (Erysiphe graminis—ERYSGT; rate 125 g ai/ha): 100
CNC(=O)C(=NOC)c1ccccc1COc1ncc(-c2snc(C)c2Br)cc1C [Compound 2, 2-[[[3-methyl-5-[5-[4-bromo-3-methylisothiazolyl]]-2-pyridinyl]-oxy]methyl]-alpha-(methoxyimino)-N-methylbenzeneacetamide]	50	100	63	100	93	100	93	100	97	85	83	85	90	96	95	97	65	65	73	79	LEPTNO 3DC (Septoria nodorum—LEPTNO; rate 62.5 g ai/ha): 47; LEPTNO 7DP (Septoria nodorum—LEPTNO; rate 62.5 g ai/ha): 84; LEPTNO 3DC (Septoria nodorum—LEPTNO; rate 125 g ai/ha): 67; LEPTNO 7DP (Septoria nodorum—LEPTNO; rate 125 g ai/ha): 98
